Experimental data as given in patent publication US20210261569A1, “FUSED HETEROCYCLIC DERIVATIVES HAVING SELECTIVE BACE1 INHIBITORY ACTIVITY” (Shionogi & Co., Ltd., priority 2018, published 2021).

Experiments:
Metabolic stability test = format: in vitro ADME; settings: human liver microsomes 0.5 mg protein/mL, NADPH, 37° C.
Description: Using a commercially available pooled human liver microsomes, a compound of the present invention was reacted for a constant time, a remaining rate was calculated by comparing a reacted sample and an unreacted sample, thereby, a degree of metabolism in liver was assessed.
A reaction was performed (oxidative reaction) at 37° C. for 0 minute or 30 minutes in the presence of 1 mmol/L NADPH in 0.2 mL of a buffer (50 mmol/L Tris-HCl pH 7.4, 150 mmol/L potassium chloride, 10 mmol/L magnesium chloride) containing 0.5 mg protein/mL of human liver microsomes. After the reaction, 50 μL of the reaction solution was added to 100 μL of a methanol/acetonitrile=1/1 (v/v), mixed and centrifuged at 3000 rpm for 15 minutes. The compound of the present invention in the supernatant was quantified by LC/MS/MS or solid phase extraction (SPE)/MS, and a remaining amount of the compound of the present invention after the reaction was calculated, letting a compound amount at 0 minute reaction time to be 100%.

[1] = target: T1, human ether-a-go-go related gene (hERG) channel (Homo sapiens, UniProt Q12809); test: hERG test (whole cell patch clamp, QPatch); format: cell-based; settings: CHO cells expressing hERG, tail peak current
T1 construct: expressed in transfected cells; host or cells: CHO cells
Source text: For the purpose of assessing risk of an electrocardiogram QT interval prolongation, effects on delayed rectifier K+ current (IKr), which plays an important role in the ventricular repolarization process of the compound of the present invention, was studied using CHO cells expressing human ether-a-go-go related gene (hERG) channel.
A cell was retained at a membrane potential of −80 mV by whole cell patch clamp method using an automated patch clamp system (QPatch; Sophion Bioscience A/S). After application of leak potential at −50 mV, IKr induced by depolarization pulse stimulation at +20 mV for 2 seconds and, further, repolarization pulse stimulation at −50 mV for 2 seconds was recorded.
After the generated current was stabilized, extracellular solution (NaCl: 145 mmol/L, KCl: 4 mmol/L, CaCl2:2 mmol/L MgCl2:1 mmol/L, 1 mmol/L, HEPES (4-(2-hydroxyethyl)-1-piperazineethanesulfonic acid: 10 mmol/L, glucose:10 mmol/L pH=7.4) in which the compound of the present invention have been dissolved at an objective concentration was applied to the cell under the room temperature condition for 10 minutes. From the recording IKr, an absolute value of the tail peak current was measured based on the current value at the resting membrane potential using an analysis software (QPatch assay software; Sophion Bioscience A/S). Further, the % inhibition relative to the tail peak current before application of the compound of the present invention was calculated, and compared with the vehicle-applied group (0.1% dimethyl sulfoxide solution) to assess influence of the compound of the present invention on IKr.

[2] = target: T2, P-gp (MDR1 expressing LLC-PK1 cells) (Homo sapiens, UniProt P08183); test: P-gp substrate test; format: in vitro ADME; settings: MDR1 expressing LLC-PK1 cells vs parent LLC-PK1 cells
T2 construct: host or cells: LLC-PK1 (porcine kidney) cells
Description: 1. MDR1 expressing LLC-PK1 cells and its parent cells were routinely cultured in Medium A (Medium 199 (Invitrogen) supplemented with 10% FBS (Invitrogen), gentamycin (0.05 mg/mL, Invitrogen) and hygromycin B (100 μg/mL, Invitrogen)) at 37° C. under 5% CO2/95% 02 gasses. For the transport experiments, these cells were seeded on Transwell (Registered trademark) insert (96-well, pore size: 0.4 μm, Coaster) at a density of 1.4×10^4 cells/insert and added Medium B (Medium 199 supplemented with 10% FBS and gentamycin at 0.05 mg/mL) to the feeder tray. These cells were incubated in a CO2 incubator (5% CO2/95% 02 gasses, 37° C.) and replace apical and basolateral culture medium every 48-72 hr after seeding. These cells were used between 4 and 6 days after seeding. 2. The medium in the culture insert seeded with MDR1 expressing cells or parent cells were removed by aspiration and rinsed by HBSS. The apical side (140 μL) or basolateral side (175 μL) was replaced with transport buffer containing reference substrates and the present invention and then an aliquot (50 μL) of transport buffer in the donor side was collected to estimate initial concentration of reference substrate and the present invention. After incubation for designed time at 37° C., an aliquot (50 μL) of transport buffer in the donor and receiver side were collected. Assay was performed by duplicate or triplicate. 3. Reference substrate and the present invention in the aliquot was quantified by LC/MS/MS.
Permeated amounts across monolayers of MDR1 expressing and parent cells were determined, and permeation coefficients (Pe) were calculated using Excel 2003 from the following equitation:
Pe (cm/sec)=Permeated amount (pmol)/area of cell membrane (cm^2)/initial concentration (nM)/incubation time (sec) Where, permeated amount was calculated from permeation concentration (nM, concentration of the receiver side) of the substance after incubation for the defined time (sec) multiplied by volume. (mL) and area of cell membrane was used 0.1433 (cm2). The efflux ratio was calculated using the following equation:
Efflux Ratio=Basolateral-to-Apical Pe/Apical-to-Basolateral Pe
The net flux was calculated using the following equation:
Net flux=Efflux Ratio in MDR1 expressing cells/Efflux Ratio in parent cells

T2 sequence (P08183 whole entry): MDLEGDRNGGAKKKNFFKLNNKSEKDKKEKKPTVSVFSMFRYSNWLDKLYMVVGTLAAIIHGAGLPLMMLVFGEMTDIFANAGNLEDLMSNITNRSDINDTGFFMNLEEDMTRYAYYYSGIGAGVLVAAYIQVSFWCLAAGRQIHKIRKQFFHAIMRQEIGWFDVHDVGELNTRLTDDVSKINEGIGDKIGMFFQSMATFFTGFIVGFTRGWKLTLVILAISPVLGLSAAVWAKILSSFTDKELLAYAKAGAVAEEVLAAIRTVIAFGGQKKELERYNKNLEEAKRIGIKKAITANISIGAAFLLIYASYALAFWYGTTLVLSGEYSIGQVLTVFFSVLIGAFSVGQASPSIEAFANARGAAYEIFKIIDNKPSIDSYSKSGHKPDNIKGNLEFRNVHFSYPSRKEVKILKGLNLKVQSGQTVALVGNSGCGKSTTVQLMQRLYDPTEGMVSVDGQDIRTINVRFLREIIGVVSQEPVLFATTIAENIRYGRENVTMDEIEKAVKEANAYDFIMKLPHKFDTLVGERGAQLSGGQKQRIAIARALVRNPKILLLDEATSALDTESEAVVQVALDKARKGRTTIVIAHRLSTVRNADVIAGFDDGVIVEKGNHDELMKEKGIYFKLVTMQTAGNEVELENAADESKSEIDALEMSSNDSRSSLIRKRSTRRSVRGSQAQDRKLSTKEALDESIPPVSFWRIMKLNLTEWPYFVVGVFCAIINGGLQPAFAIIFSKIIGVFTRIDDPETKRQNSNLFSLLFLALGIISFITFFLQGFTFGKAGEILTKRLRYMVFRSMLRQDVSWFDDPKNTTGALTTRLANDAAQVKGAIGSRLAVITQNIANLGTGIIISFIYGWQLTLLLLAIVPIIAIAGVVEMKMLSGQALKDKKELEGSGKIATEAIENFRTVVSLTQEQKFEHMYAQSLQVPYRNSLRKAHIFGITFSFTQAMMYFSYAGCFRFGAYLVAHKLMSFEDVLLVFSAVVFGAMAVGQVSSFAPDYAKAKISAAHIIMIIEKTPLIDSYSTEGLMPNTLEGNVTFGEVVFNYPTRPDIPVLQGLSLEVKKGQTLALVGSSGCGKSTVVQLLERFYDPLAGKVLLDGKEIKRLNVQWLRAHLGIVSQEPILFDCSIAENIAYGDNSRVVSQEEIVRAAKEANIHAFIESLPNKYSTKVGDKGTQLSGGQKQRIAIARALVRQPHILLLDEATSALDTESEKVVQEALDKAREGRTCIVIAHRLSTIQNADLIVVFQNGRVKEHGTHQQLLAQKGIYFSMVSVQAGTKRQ
T1 sequence (Q12809 whole entry): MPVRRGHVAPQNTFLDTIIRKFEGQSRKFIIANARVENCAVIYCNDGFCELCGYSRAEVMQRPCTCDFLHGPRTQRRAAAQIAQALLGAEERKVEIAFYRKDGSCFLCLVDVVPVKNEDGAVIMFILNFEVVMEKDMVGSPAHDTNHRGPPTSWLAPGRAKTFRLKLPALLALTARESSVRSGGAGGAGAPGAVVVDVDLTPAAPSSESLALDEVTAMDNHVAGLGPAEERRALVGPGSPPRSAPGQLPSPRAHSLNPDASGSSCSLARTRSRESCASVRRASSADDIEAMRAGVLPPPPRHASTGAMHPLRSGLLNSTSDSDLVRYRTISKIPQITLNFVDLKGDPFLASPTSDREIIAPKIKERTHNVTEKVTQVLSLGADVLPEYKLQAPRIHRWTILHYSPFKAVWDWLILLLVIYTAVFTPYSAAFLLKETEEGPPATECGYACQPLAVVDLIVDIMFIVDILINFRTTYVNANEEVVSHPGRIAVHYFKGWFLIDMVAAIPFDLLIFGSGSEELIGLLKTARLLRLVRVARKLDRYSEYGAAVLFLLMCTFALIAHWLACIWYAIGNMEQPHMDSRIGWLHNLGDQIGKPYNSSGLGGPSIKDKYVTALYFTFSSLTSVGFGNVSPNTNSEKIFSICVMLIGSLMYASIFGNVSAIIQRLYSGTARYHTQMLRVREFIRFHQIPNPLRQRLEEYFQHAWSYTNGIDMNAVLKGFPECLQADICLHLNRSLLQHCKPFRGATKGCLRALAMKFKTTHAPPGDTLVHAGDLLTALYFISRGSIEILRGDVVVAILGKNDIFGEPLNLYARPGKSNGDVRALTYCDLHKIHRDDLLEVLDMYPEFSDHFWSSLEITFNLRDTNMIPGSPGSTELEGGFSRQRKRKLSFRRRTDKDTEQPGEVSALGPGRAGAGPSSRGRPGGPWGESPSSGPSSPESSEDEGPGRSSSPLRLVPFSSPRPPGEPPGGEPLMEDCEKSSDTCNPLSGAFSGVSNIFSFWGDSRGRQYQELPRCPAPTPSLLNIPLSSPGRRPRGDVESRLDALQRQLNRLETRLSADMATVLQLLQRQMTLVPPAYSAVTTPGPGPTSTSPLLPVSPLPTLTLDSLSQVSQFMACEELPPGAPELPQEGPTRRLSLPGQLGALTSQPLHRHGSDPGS

| Remaining rate (%) at 30 min (Metabolic stability test) [%] | P-gp ER ratio [2] | Compound | hERG inhibition (%) at 3 μM [1] [%] |
| --- | --- | --- | --- |
| 92 | 3.6 | C[C@@H]1OC[C@H]2[C@@H]1OC(N)=N[C@]2(CF)c1cc(NC(=O)c2cnc(OCF)cn2)ccc1F [Compound I-082] | 6.7 |
| 92 | 5.2 | NC1=N[C@](CF)(c2cc(NC(=O)c3cnc(OCF)cn3)ccc2F)[C@H]2[C@H](CC(F)F)OC[C@H]2O1 [Compound I-116] | 33.9 |
